Laboratory results reported in the NIST ThermoML archive (doi:10.1016/j.jct.2011.11.019).
Numbers after ± are expanded uncertainties.

Assay: xn = mol fraction of the nth substance listed
Settings: 298.15 K, 101 kPa, Liquid, Vibrating tube method

OC(C(F)(F)F)C(F)(F)F [1,1,1,3,3,3-hexafluoro-2-propanol] + O
Settings	mass density [kg/m3]
x1 = 0.1024	1261.96 ± 0.3
x1 = 0.205	1387.36 ± 0.31
x1 = 0.3016	1455.74 ± 0.32
x1 = 0.4067	1501.77 ± 0.36
x1 = 0.4929	1527.75 ± 0.41
x1 = 0.5943	1550.19 ± 0.47
x1 = 0.6411	1558.59 ± 0.5
x1 = 0.8065	1585.8 ± 0.62
x1 = 0.9005	1593.04 ± 0.69
